Experimental data as given in patent US6916802B2, “Amino ceramide-like compounds and therapeutic methods of use” (Genzyme Corporation, priority 2002, dated 2005).
Values joined by “and” are separate entries in the source; they are usually repeats but may differ in a detail not shown here. Equal values may be shown once. Marks after values point to notes of the source that are not given here.

Legend:
[1] = test system: 9L brain gliosarcoma cells; assay: Tumor cell growth in vitro (sulforhodamine B), 9L; type: cell-based; details: for growth, % of control growth: 9L cells; for IC50: 9L, rounded off to one digit, read-out: Inhibition of tumor cell growth in vitro, IC50
In short: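 Cells in RPMI 1640 + 5% FBS, plated 1000/well (H-460, 9L) or 2000/well (MCF-7); compounds added day 1 from 2 mM BSA stocks diluted 500-fold in medium. Growth read by sulforhodamine B staining, A520, at day 5 (H-460, 9L) or day 6 (MCF-7), as percent of control.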

MDCK cells [2] = assay: Lipid changes in MDCK cells (GlcCer, ceramide, diacylglycerol); type: cell-based, canine; details: for level of GlcCer, estimated visually (TLC): 24 h incubation; for Ceramide / Diglyceride: diglyceride kinase method
Protocol: TLC of the cell lipids was run with C-M-W 24:7:1 (solvent D) or 60:35:8 (solvent E).
Ceramide accumulation was similar for both stereoisomers (data not shown). An unexpected finding is that noticeable ceramide accumulation appeared only at inhibitor concentrations that were more than enough to bring GlcCer levels to a very low point (e.g., at 2 or 4 μM). The changes in ceramide concentration were quantitated in a separate experiment by the diglyceride kinase method, which allows one to also determine diacylglycerol (DAG) concentration (Preiss, J. E. et al., “Quantitative Measurement of SN-1,2-Diacylglycerols Present in Platelets, Hepatocytes, and Ras- and Sis-Transformed Normal Rat Kidney Cells,” J. Biol. Chem., 261:8597-8600 (1986)). The results (Table 5) are similar to the visually estimated ones: at 0.4 μM BML-129 or -130 there was little effect on ceramide content but at 4 μM inhibitor, a substantial increase was observed. (While the duplicate protein contents per incubation dish were somewhat erratic in the high-dose dishes, in which growth was slow, the changes were nevertheless large and clear.) Accumulation of ceramide had previously been observed with PDMP, at a somewhat higher level of inhibitor in the medium (Shayman, J. A. et al., “Modulation of Renal Epithelial Cell Growth by Glucosylceramide: Association with Protein Kinase C, Sphingosine, and Diacylglyceride,” J. Biol. Chem., 266:22968-22974 (1991)). From the data for cellular protein per incubation dish, it can be seen that there was no growth inhibition at the 0.4 μM level with either compound but substantial inhibition at the 4 μM level, especially with the glucosyltransferase inhibitor, BML-130. This finding is similar to the ones made in longer incubations with human cancer cells.

[3] = test system: Neutral sphingomyelinase (SMase); assay: Neutral sphingomyelinase of MDCK cells; type: biochemical, canine
Protocol: Acid and neutral SMase assays were based on the procedures of Gatt et al. (Gatt, S. et al., “Assay of Enzymes of Lipid Metabolism With Colored and Fluorescent Derivatives of Natural Lipids,” Meth. Enzymol., 72:351-375 (1981)), using liposomes containing NBD-SM dispersed like the labeled ceramide (10 μM substrate and 30 μM lecithin). […] Incubation was at 37° C. for 30 min in the ultrasonic bath, then the fluorescent product, NBD-ceramide, was isolated by partitioning the assay mixture with 0.45 ml 2-propanol, 1.5 ml heptane, and 0.2 ml water. After centrifugation, a trace of contaminating NBD-SM was removed from 0.9 ml of the upper layer by washing with 0.35 ml water. The upper layer was analyzed with a fluorometer (460 nm excitation, 515 nm emission).

Sphingomyelin synthase = Sphingomyelin synthase of MDCK homogenate; type: biochemical, canine
Protocol: Sphingomyelin synthase was evaluated with 44 μM [^14C]decanoyl sphingosine (10^5 cpm) dispersed with 136 μM dioleoyllecithin as in the ceramide synthase assay, and 5 mM EDTA and 50 mM Hepes-Na^+ pH 7.5, in a total volume of 0.5 ml. MDCK homogenate was centrifuged at 600×g briefly, then at 100,000×g for 1 h, and the pellet was suspended in water and sonicated with a dipping probe. A portion of this suspension containing 300 μg of protein was used. Incubation was at 37° C. for 30 min, after which the lipids were treated as above, using C-M-W 60:35:8 for the isolation of the labeled decanoyl SM.

MDCK cells [4] = assay: Lipid changes in MDCK cells (GlcCer, ceramide, diacylglycerol); type: cell-based, canine; details: 24 h

Row | SMILES | growth, % of control growth ([1]; 2 μM inhibitor) | growth, % of control growth ([1]; 3 μM inhibitor) | IC50 [1] | level of GlcCer, estimated visually (TLC) (MDCK cells [2]; 0.3 μM) | Ceramide (MDCK cells [2]; 0.4 μM) | Diglyceride (MDCK cells [2]; 0.4 μM) | Ceramide (MDCK cells [2]; 4 μM) | Diglyceride (MDCK cells [2]; 4 μM) | Sphingomyelinase pH 7.1, enzyme activity (% of control) ([3]; 5 μM) | Sphingomyelinase pH 7.1, enzyme activity (% of control) ([3]; 50 μM) | Sphingomyelinase Synthase, enzyme activity (% of control) (Sphingomyelin synthase; 5 μM) | Sphingomyelinase Synthase, enzyme activity (% of control) (Sphingomyelin synthase; 50 μM) | inhibition of sphingomyelin synthase (Sphingomyelin synthase; 50 μM) | ceramide concentration, TLC densitometry (MDCK cells [4]; 0.5 μM) | ceramide concentration, TLC densitometry (MDCK cells [4]; 1 μM) | ceramide concentration, TLC densitometry (MDCK cells [4]; 2 μM) | ceramide concentration, TLC densitometry (MDCK cells [4]; 4 μM) | level of GlcCer, estimated visually (TLC) (MDCK cells [2]; 0.5 μM) | ceramide concentration, TLC densitometry, compared with BML-130 (MDCK cells [4]; various concentrations)
1 | CCCCCCCCCCCCCCCC(=O)NC(CN1CCCC1)C(O)c1ccccc1 (racemic) [BML-130] | 93% | 5% | 2000 nM | greatly lowered | 0.94 nmol/mg protein and 0.87 nmol/mg protein | 4.73 nmol/mg protein and 5.65 nmol/mg protein | 5.41 nmol/mg protein and 3.34 nmol/mg protein | 11.9 nmol/mg protein and 8.71 nmol/mg protein | 110 ± 7 % of control | 152 ± 14 % of control | 87 ± 14 % of control | 39 ± 18^b % of control | 61% | 1.0 nmol/mg protein | 1.1 nmol/mg protein | 1.5 nmol/mg protein | 3.3 nmol/mg protein |  | 
2 | CCCCCCCCCCCCCCCC(=O)NC(CN1CCCC1)C(O)c1ccccc1 (racemic) [BML-129] |  |  | 2000 nM |  | 0.99 nmol/mg protein and 1.29 nmol/mg protein | 5.13 nmol/mg protein and 5.51 nmol/mg protein | 3.57 nmol/mg protein and 3.78 nmol/mg protein | 9.30 nmol/mg protein and 9.68 nmol/mg protein | 105 ± 11 % of control | 142 ± 11^b % of control | 84 ± 27 % of control | 46 ± 11^b % of control | 54% |  |  |  |  | greatly lowered | virtually identical
